PubChem BioAssay AID256 (DTP/NCI, 2004)
Values joined by “and” are separate entries in the source; they are usually repeats but may differ in a detail not shown here. Equal values may be shown once. Toxic doses and inconclusive results are not listed. How the source made its calls: active means survival T/C of 150% or more; inactive means T/C below 125% in these data.

Tested on: CD2F1 mice, L1210 leukemia ip, survival T/C
Assay: NCI In Vivo Anticancer Drug Screen. Data for tumor model L1210 Leukemia (intraperitoneal) in CD2F1 (CDF1) mice
Conditions: higher = longer survival
Procedure, shortened: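 Read-out first: treated-group measurement over vehicle-control measurement, expressed as a ratio. Animals bore a transplanted tumor line and were dosed with compound or vehicle.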

[1] = endpoint: mean survival time, dose: 100.0 mg/kg/injection, schedule: Q01DX009 (ip), vehicle: saline sonified
[2] = endpoint: mean survival time, dose: 200.0 mg/kg/injection, schedule: Q01DX009 (ip), vehicle: saline sonified
[3] = endpoint: mean survival time, dose: 400.0 mg/kg/injection, schedule: Q01DX009 (ip), vehicle: saline sonified
[4] = endpoint: mean survival time, dose: 100.0 mg/kg/injection, schedule: Q01DX009 (ip), vehicle: saline with Tween-80
[5] = endpoint: mean survival time, dose: 200.0 mg/kg/injection, schedule: Q01DX009 (ip), vehicle: saline with Tween-80
[6] = endpoint: mean survival time, dose: 400.0 mg/kg/injection, schedule: Q01DX009 (ip), vehicle: saline with Tween-80
[7] = endpoint: mean survival time, dose: 100.0 mg/kg/injection, schedule: Q04DX003 (ip), vehicle: saline with Tween-80
[8] = endpoint: mean survival time, dose: 200.0 mg/kg/injection, schedule: Q04DX003 (ip), vehicle: saline with Tween-80
[9] = endpoint: mean survival time, dose: 400.0 mg/kg/injection, schedule: Q04DX003 (ip), vehicle: saline with Tween-80
[10] = endpoint: mean survival time, dose: 100.0 mg/kg/injection, schedule: Q01DX001 (ip), vehicle: saline
[11] = endpoint: mean survival time, dose: 25.0 mg/kg/injection, schedule: Q01DX009 (ip), vehicle: saline with Tween-80
[12] = endpoint: mean survival time, dose: 50.0 mg/kg/injection, schedule: Q01DX009 (ip), vehicle: saline with Tween-80
[13] = endpoint: mean survival time, dose: 50.0 mg/kg/injection, schedule: Q04DX002 (ip), vehicle: saline with Tween-80
[14] = endpoint: mean survival time, dose: 100.0 mg/kg/injection, schedule: Q04DX002 (ip), vehicle: saline with Tween-80
[15] = endpoint: mean survival time, dose: 100.0 mg/kg/injection, schedule: Q01DX001 (ip), vehicle: saline with Tween-80
[16] = endpoint: mean survival time, dose: 200.0 mg/kg/injection, schedule: Q01DX001 (ip), vehicle: saline with Tween-80
[17] = endpoint: mean survival time, dose: 400.0 mg/kg/injection, schedule: Q01DX001 (ip), vehicle: saline with Tween-80

Measured: T/C

OCCO
inactive: [1] 94 % of control and 101 % of control | endpoint: mean survival time, dose: 100.0 mg/kg/injection, schedule: Q04DX003 (ip), vehicle: saline 103 % of control and 106 % of control | [2] 94 % of control and 101 % of control | endpoint: mean survival time, dose: 200.0 mg/kg/injection, schedule: Q04DX003 (ip), vehicle: saline 104 % of control and 98 % of control | [3] 93 % of control and 104 % of control | endpoint: mean survival time, dose: 400.0 mg/kg/injection, schedule: Q04DX003 (ip), vehicle: saline 104 % of control and 101 % of control | endpoint: median survival time, dose: 0.25 % in 0.5 ml injection vol, schedule: Q01DX009 (ip), vehicle: water 95 % of control | endpoint: median survival time, dose: 0.5 % in 0.5 ml injection vol, schedule: Q01DX009 (ip), vehicle: water 94 % of control | endpoint: median survival time, dose: 1.0 % in 0.5 ml injection vol, schedule: Q01DX009 (ip), vehicle: water 94 % of control | endpoint: median survival time, dose: 2.0 % in 0.5 ml injection vol, schedule: Q01DX009 (ip), vehicle: water 105 % of control

CN(C)N=Nc1ccc(C(F)(F)F)cc1
inactive: endpoint: mean survival time, dose: 118.0 mg/kg/injection, schedule: Q01DX009 (ip), vehicle: Klucel (hydroxypropylcellulose) (HPC) 101 % of control | endpoint: mean survival time, dose: 177.0 mg/kg/injection, schedule: Q01DX009 (ip), vehicle: Klucel (hydroxypropylcellulose) (HPC) 102 % of control

CCOP(=O)(OCC)C(c1ccccc1)(c1ccccc1)c1ccccc1
inactive: endpoint: mean survival time, dose: 100.0 mg/kg/injection, schedule: Q01DX001 (ip), vehicle: Klucel (hydroxypropylcellulose) (HPC) 103 % of control | endpoint: mean survival time, dose: 200.0 mg/kg/injection, schedule: Q01DX001 (ip), vehicle: Klucel (hydroxypropylcellulose) (HPC) 96 % of control | endpoint: mean survival time, dose: 400.0 mg/kg/injection, schedule: Q01DX001 (ip), vehicle: Klucel (hydroxypropylcellulose) (HPC) 102 % of control

CC(=O)Nc1onc(C)c1NC(C)=O
inactive: [4] 95 % of control | [5] 101 % of control | [6] 95 % of control

CCOC(=O)C(C)(C)Br
inactive: [1] 105 % of control | [4] 102 % of control | [7] 95 % of control and 98 % of control and 103 % of control | [2] 100 % of control | [8] 95 % of control and 98 % of control and 100 % of control | [3] 106 % of control | [6] 90 % of control | [9] 96 % of control and 103 % of control and 106 % of control

NC1=NC(c2ccccc2)N(c2cccc(Cl)c2)C(N)=N1 (stereo unspecified)
inactive: endpoint: mean survival time, dose: 25.0 mg/kg/injection, schedule: Q01DX001 (ip), vehicle: saline 107 % of control | endpoint: mean survival time, dose: 50.0 mg/kg/injection, schedule: Q01DX001 (ip), vehicle: saline 104 % of control | [10] 101 % of control

CCc1ccc(NC(=O)c2cccc(Cl)c2)cc1
inactive: [4] 93 % of control | [7] 95 % of control | [5] 109 % of control | [8] 98 % of control | [6] 98 % of control | [9] 98 % of control

Cc1cc(C)c(NC(=O)c2ccccc2Cl)c(C)c1
inactive: [7] 97 % of control | [8] 110 % of control | [9] 97 % of control

CCOC1(c2ccccc2)c2ccccc2C(C)(C)c2ccccc21
inactive: [7] 92 % of control | [9] 92 % of control

O=C(/C(=C\c1ccccc1)N1CCOCC1)c1ccc(Cl)cc1
inactive: [11] 95 % of control | [12] 97 % of control | [4] 86 % of control

O=C(c1ccccc1)C1CC2CCC1CC2 (stereo unspecified)
inactive: [13] 96 % of control | [14] 86 % of control | endpoint: mean survival time, dose: 200.0 mg/kg/injection, schedule: Q04DX002 (ip), vehicle: saline with Tween-80 93 % of control | endpoint: mean survival time, dose: 400.0 mg/kg/injection, schedule: Q04DX002 (ip), vehicle: saline with Tween-80 89 % of control

O=[N+]([O-])c1ccc(N/N=C2\C(c3ccccc3)=C(c3ccccc3)CC2Cl)c([N+](=O)[O-])c1 (stereo unspecified)
inactive: [15] 90 % of control | [16] 101 % of control | [17] 96 % of control

O=c1[nH]cc(NCCCCc2ccccc2)c(=O)[nH]1
inactive: [15] 94 % of control | [16] 95 % of control | [17] 92 % of control

O=[N+]([O-])c1cc2ccccc2c(O)c1O
inactive: [11] 102 % of control | [12] 108 % of control | [7] 91 % of control

CC1([N+](=O)[O-])COC(c2ccc(Cl)cc2)OC1 (stereo unspecified)
inactive: endpoint: mean survival time, dose: 100.0 mg/kg/injection, schedule: Q04DX003 (ip), vehicle: Klucel (hydroxypropylcellulose) (HPC) 96 % of control | endpoint: mean survival time, dose: 200.0 mg/kg/injection, schedule: Q04DX003 (ip), vehicle: Klucel (hydroxypropylcellulose) (HPC) 104 % of control

Cc1nc2ccccc2[nH]1
inactive: [15] 102 % of control | [16] 105 % of control

O=[N+]([O-])O.[NH-]C1CCCCC1[NH-].[NH-]C1CCCCC1[NH-].[Ni+2] (stereo unspecified)
inactive: [13] 110 % of control | [14] 113 % of control

CCCCCCC(Sc1nn(C2OC(COC(=O)c3ccccc3)C(OC(=O)c3ccccc3)C2OC(=O)c2ccccc2)c(=O)[nH]c1=O)C(=O)OCC (stereo unspecified)
inactive: endpoint: mean survival time, dose: 12.5 mg/kg/injection, schedule: Q01DX005 (ip), vehicle: distilled water + Tween-80 100 % of control | endpoint: mean survival time, dose: 25.0 mg/kg/injection, schedule: Q01DX005 (ip), vehicle: distilled water + Tween-80 100 % of control | endpoint: mean survival time, dose: 50.0 mg/kg/injection, schedule: Q01DX005 (ip), vehicle: distilled water + Tween-80 94 % of control | endpoint: mean survival time, dose: 100.0 mg/kg/injection, schedule: Q01DX005 (ip), vehicle: distilled water + Tween-80 95 % of control | endpoint: mean survival time, dose: 200.0 mg/kg/injection, schedule: Q01DX005 (ip), vehicle: distilled water + Tween-80 94 % of control

COC(=O)[C@]1(C)CCC[C@]2(C)[C@H]3CC4OO[C@@]3(CC[C@H]21)[C@H]1O[C@@]41C(C)C
inactive: [4] 97 % of control | endpoint: mean survival time, dose: 125.0 mg/kg/injection, schedule: Q01DX009 (ip), vehicle: Klucel (hydroxypropylcellulose) (HPC) 96 % of control | [5] 101 % of control | endpoint: mean survival time, dose: 250.0 mg/kg/injection, schedule: Q01DX009 (ip), vehicle: Klucel (hydroxypropylcellulose) (HPC) 96 % of control | [6] 98 % of control | endpoint: mean survival time, dose: 500.0 mg/kg/injection, schedule: Q01DX009 (ip), vehicle: Klucel (hydroxypropylcellulose) (HPC) 97 % of control

CCc1ncc(CO)n1Cc1ccccc1
inactive: [4] 100 % of control

COc1ccc(C(C)c2cc3c(cc2OC)OCO3)cc1 (stereo unspecified)
inactive: endpoint: median survival time, dose: 25.0 mg/kg/injection, schedule: Q01DX009 (ip), vehicle: saline with Tween-80 101 % of control | endpoint: median survival time, dose: 50.0 mg/kg/injection, schedule: Q01DX009 (ip), vehicle: saline with Tween-80 107 % of control | endpoint: median survival time, dose: 100.0 mg/kg/injection, schedule: Q01DX009 (ip), vehicle: saline with Tween-80 113 % of control | endpoint: median survival time, dose: 200.0 mg/kg/injection, schedule: Q01DX009 (ip), vehicle: saline with Tween-80 119 % of control

COc1ccc(-c2nccc3cc(OC)c(OC)cc23)cc1OC
inactive: endpoint: mean survival time, dose: 12.5 mg/kg/injection, schedule: Q01DX009 (ip), vehicle: water 95 % of control | endpoint: mean survival time, dose: 25.0 mg/kg/injection, schedule: Q01DX009 (ip), vehicle: water 95 % of control | endpoint: mean survival time, dose: 50.0 mg/kg/injection, schedule: Q01DX009 (ip), vehicle: water 103 % of control

N#CC(=C=[N-])C(C#N)(C#N)Cc1ccccc1.[C-]#[O+].[C-]#[O+].[Fe+6].[c-]1[c-][c-][cH-][c-]1
inactive: endpoint: mean survival time, dose: 12.5 mg/kg/injection, schedule: Q04DX002 (ip), vehicle: saline with Tween-80 93 % of control | endpoint: mean survival time, dose: 25.0 mg/kg/injection, schedule: Q04DX002 (ip), vehicle: saline with Tween-80 97 % of control | [13] 97 % of control

CCOC(=O)C1C(C(=O)OCC)C(C)(C)C1N(C)C (stereo unspecified)
inactive: [12] 107 % of control | [4] 98 % of control | [5] 98 % of control

CN(N)c1cccc2c1CCCC2
inactive: [11] 106 % of control | endpoint: mean survival time, dose: 25.0 mg/kg/injection, schedule: Q04DX003 (ip), vehicle: saline with Tween-80 97 % of control | [12] 103 % of control | endpoint: mean survival time, dose: 50.0 mg/kg/injection, schedule: Q04DX003 (ip), vehicle: saline with Tween-80 102 % of control | [4] 105 % of control | [7] 93 % of control and 102 % of control

COc1ccc(C(CO)=C(c2ccc(OC)cc2)c2ccc(OC)cc2)cc1
inactive: [7] 103 % of control | [8] 94 % of control | [9] 95 % of control

[Ni+2].[S-]Cc1ccccc1.[S-]Cc1ccccc1
inactive: [10] 100 % of control | endpoint: mean survival time, dose: 200.0 mg/kg/injection, schedule: Q01DX001 (ip), vehicle: saline 96 % of control

COC(=O)/C=C/C(=O)NC(N)=O
inactive: endpoint: mean survival time, dose: 6.25 mg/kg/injection, schedule: Q04DX003 (ip), vehicle: saline 91 % of control | endpoint: mean survival time, dose: 12.5 mg/kg/injection, schedule: Q04DX003 (ip), vehicle: saline 113 % of control | endpoint: mean survival time, dose: 25.0 mg/kg/injection, schedule: Q04DX003 (ip), vehicle: saline 100 % of control
